Data from US11497212B2, “Substituted thiophenyl uracils, salts thereof and the use thereof as herbicidal agents” (Syngenta Crop Protection AG, priority 2017, dated 2022).

Tests used:
Format in all cases: in vivo
[1] = tested on: Matricaria inodora; assay: Herbicidal action post-emergence (greenhouse pot trial); details: application rate 20 g/ha, scored visually after about 3 weeks vs untreated controls
Description: (§1) Seeds of mono- and dicotyledonous weed plants and crop plants are laid out in sandy loam soil in plastic or wood-fiber pots, covered with earth and grown under controlled growth conditions in a greenhouse. 2 to 3 weeks after sowing, the trial plants are treated at the one-leaf stage. The compounds of the invention formulated in the form of wettable powders (WP) or emulsion concentrates (EC) were then sprayed onto the green parts of the plant as an aqueous suspension or emulsion with addition of 0.5% additive at a water application rate equivalent to 600 L/ha. After the trial plants had stood for about 3 weeks in the greenhouse, under optimal growth conditions, the effect of the preparations was scored visually by comparison with untreated controls. For example, 100% efficacy=plants have died, 0% efficacy=like control plants. Tables A1 to A15 below show the efficacies of selected compounds of the general formula (I) according to tables I.1 to I.60 on various harmful plants and an application rate corresponding to 80 g/ha or lower that were obtained by the aforementioned trial method.

[2] = tested on: Setaria viridis; assay: as above; details: application rate 20 g/ha, scored visually after about 3 weeks vs untreated controls
Description: as §1

[3] = tested on: Digitaria sanguinalis; assay: as above; details: application rate 20 g/ha
Description: as §1

[4] = tested on: Viola tricolor; assay: as above; details: application rate 20 g/ha
Description: as §1

[5] = tested on: Polygonum convolvulus; assay: as above; details: application rate 20 g/ha, scored visually after about 3 weeks vs untreated controls
Description: as §1

[6] = tested on: Stellaria media; assay: as above; details: application rate 20 g/ha, scored visually after about 3 weeks vs untreated controls
Description: as §1

[7] = tested on: Abutilon theophrasti; assay: as above; details: application rate 20 g/ha, scored visually after about 3 weeks vs untreated controls
Description: as §1

[8] = tested on: Amaranthus retroflexus; assay: as above; details: application rate 20 g/ha, scored visually after about 3 weeks vs untreated controls
Description: as §1

[9] = tested on: Echinochloa crus-galli; assay: as above; details: application rate 20 g/ha, scored visually after about 3 weeks vs untreated controls
Description: as §1

[10] = tested on: Veronica persica; assay: as above; details: application rate 20 g/ha
Description: as §1

[11] = tested on: Pharbitis purpurea; assay: as above; details: application rate 20 g/ha
Description: as §1

[12] = tested on: Triticum aestivum; assay: Crop compatibility post-emergence (greenhouse pot trial)
Description: as §1, with “plants.” for “plants. Tables A1 to A15 below show the efficacies of selected compounds of the general formula (I) according to tables I.1 to I.60 on various harmful plants and an application rate corresponding to 80 g/ha or lower that were obtained by the aforementioned trial method.”
(§2) Crop plant compatibilities were also scored correspondingly.
(§3) The effects observed are reported here on selected crop plants by comparison with the untreated controls (values in %).

[13] = tested on: Oryza sativa; assay: as above
Description: as §1, with “plants.” for “plants. Tables A1 to A15 below show the efficacies of selected compounds of the general formula (I) according to tables I.1 to I.60 on various harmful plants and an application rate corresponding to 80 g/ha or lower that were obtained by the aforementioned trial method.”
as §2, §3

[14] = tested on: Zea mays; assay: as above
Description: as §1, with “plants.” for “plants. Tables A1 to A15 below show the efficacies of selected compounds of the general formula (I) according to tables I.1 to I.60 on various harmful plants and an application rate corresponding to 80 g/ha or lower that were obtained by the aforementioned trial method.”
as §2, §3

[15] = tested on: Alopecurus myosuroides; assay: Herbicidal action post-emergence (greenhouse pot trial); details: application rate 20 g/ha, scored visually after about 3 weeks vs untreated controls
Description: as §1

Triticum aestivum (Efficacy in %) ([12]; application rate 20 g/ha) [%] | Oryza sativa (Efficacy in %) ([13]; application rate 20 g/ha) [%] | Triticum aestivum (Efficacy in %) ([12]; application rate 5 g/ha) [%] | Zea mays (Efficacy in %) ([14]; application rate 5 g/ha) [%] | Zea mays (Efficacy in %) ([14]; application rate 20 g/ha) [%] | Zea mays (Efficacy in %) ([14]; application rate 80 g/ha) [%] | Oryza sativa (Efficacy in %) ([13]; application rate 5 g/ha) [%] | Structure (SMILES) | Matricaria inodora (Efficacy in %) [1] [%] | Setaria viridis (Efficacy in %) [2] [%] | Digitaria sanguinalis (Efficacy in %) [3] [%] | Viola tricolor (Efficacy in %) [4] [%] | Polygonum convolvulus (Efficacy in %) [5] [%] | Stellaria media (Efficacy in %) [6] [%] | Abutilon theophrasti (Efficacy in %) [7] [%] | Amaranthus retroflexus (Efficacy in %) [8] [%] | Echinochloa crus-galli (Efficacy in %) [9] [%] | Veronica persica (Efficacy in %) [10] [%] | Pharbitis purpurea (Efficacy in %) [11] [%] | Alopecurus myosuroides (Efficacy in %) [15] [%]
20 | 0 |  |  |  |  |  | CC(Sc1cc(-n2c(=O)cc(C(F)(F)F)n(C)c2=O)c(F)cc1Cl)C(=O)OCCCOCc1ccccc1 (stereo not drawn) [I.1-30] | 100 | 100 | 100 | 100 | 100 | 90 | 100 | 100 | 100 | 100 | 100 | 
 | 20 | 20 | 20 |  |  |  | COCCNC(=O)C(C)Sc1cc(-n2c(=O)cc(C(F)(F)F)n(C)c2=O)c(F)cc1Cl (stereo not drawn) [I.1-151] | 100 | 100 | 80 | 100 | 100 | 100 | 100 | 100 |  | 100 | 100 | 
 | 10 |  |  | 20 |  |  | CC(Sc1cc(-n2c(=O)cc(C(F)(F)F)n(C)c2=O)c(F)cc1Cl)C(=O)NCC1COC(C)(C)O1 (stereo not drawn) [I.1-334] | 100 | 90 |  | 100 | 90 | 90 | 100 | 100 |  | 100 |  | 
 |  | 20 |  |  |  |  | CCC(Sc1cc(-n2c(=O)cc(C(F)(F)F)n(C)c2=O)c(F)cc1Cl)C(=O)OCC1CCCCO1 (stereo not drawn) [I.2-91, Tetrahydro-2H-pyran-2-ylmethyl 2-({2-chloro-4-fluoro-5-[3-methyl-2,6-dioxo-4-(trifluoromethyl)-3,6-dihydropyrimidin-1(2H)-yl]phenyl}sulfanyl)butanoate] | 100 | 100 |  | 100 | 100 | 80 | 100 | 100 | 100 | 100 | 100 | 90
 | 0 | 0 | 0 |  |  |  | CCC(Sc1cc(-n2c(=O)c(C)c(C(F)(F)F)n(C)c2=O)c(F)cc1Cl)C(=O)OCC1CCCO1 (stereo not drawn) [I.12-71] | 80 |  |  | 100 | 80 | 100 | 100 | 100 | 100 | 100 | 100 | 
20 | 20 |  | 0 |  |  |  | CCC(Sc1cc(-n2c(=O)c(C)c(C(F)(F)F)n(C)c2=O)c(F)cc1Cl)C(=O)NCC1CCCO1 (stereo not drawn) [I.12-221] | 100 |  |  | 100 | 100 | 80 | 100 | 100 |  | 100 |  | 
0 | 10 |  | 10 |  |  |  | Cn1c(C(F)(F)F)cc(=O)n(-c2cc(SCC(C)(C)C(=O)OCC3CCCOC3)c(Cl)cc2F)c1=O (stereo not drawn) [I.48-92, Tetrahydro-2H-pyran-3-ylmethyl 3-({2-chloro-4-fluoro-5-[3-methyl-2,6-dioxo-4-(trifluoromethyl)-3,6-dihydropyrimidin-1(2H)-yl]phenyl}sulfanyl)-2,2-dimethylpropanoate] |  | 100 |  | 100 | 80 | 100 | 100 | 100 |  | 100 |  | 
0 | 0 |  |  |  |  |  | Cn1c(C(F)(F)F)cc(=O)n(-c2cc(SCC(C)(C)C(=O)OCC3CCOCC3)c(Cl)cc2F)c1=O [I.48-93] |  |  |  | 100 | 80 | 100 | 100 | 100 |  | 100 | 100 | 80
0 | 0 |  |  |  |  |  | Cn1c(C(F)(F)F)cc(=O)n(-c2cc(SCC(C)(C)C(=O)OC3CCOC3)c(Cl)cc2F)c1=O (stereo not drawn) [I.48-121] | 100 |  | 80 | 100 | 100 | 80 | 100 | 100 |  | 100 | 100 | 80
10 | 0 |  | 20 |  |  |  | Cn1c(C(F)(F)F)cc(=O)n(-c2cc(SCC(C)(C)C(=O)OC3CCOCC3)c(Cl)cc2F)c1=O [I.48-127] | 90 |  |  | 100 | 90 | 100 | 100 | 100 |  | 100 | 90 | 
 | 10 |  |  |  | 20 |  | Cn1c(C(F)(F)F)cc(=O)n(-c2cc(SCC(C)(C)C(=O)NCC3CCCO3)c(Cl)cc2F)c1=O (stereo not drawn) [I.48-221] | 80 |  |  | 100 |  | 100 | 100 | 90 |  | 100 |  | 
 |  | 20 |  |  |  | 0 | Cc1c(C(F)(F)F)n(C)c(=O)n(-c2cc(SCC(C)(C)C(=O)OCC3CCCO3)c(Cl)cc2F)c1=O (stereo not drawn) [I.54-71] |  | 100 | 80 | 100 | 100 | 80 | 100 | 100 | 80 | 100 | 100 | 
 | 0 | 0 | 20 |  |  |  | Cc1c(C(F)(F)F)n(C)c(=O)n(-c2cc(SCC(C)(C)C(=O)OCC3CCSC3)c(Cl)cc2F)c1=O (stereo not drawn) [I.54-82] |  |  |  | 90 |  |  | 100 | 100 |  | 80 |  | 
0 | 20 |  |  | 00 |  |  | Cc1c(C(F)(F)F)n(C)c(=O)n(-c2cc(SCC(C)(C)C(=O)NCC3CCCO3)c(Cl)cc2F)c1=O (stereo not drawn) [I.54-221] | 100 |  |  |  | 100 | 80 | 100 | 100 |  | 80 | 100 | 
